Patent publication US10932454B2, “LDL receptor gene knockout, genetically-engineered hamster” (HEBEI INVIVO BIOTECH INC, priority 2016, dated 2021)
“Also recorded” adds a separate entry of the source.

What was measured:
[1] = test system: wild type control hamsters; assay: High-fat diet feeding with intragastric ezetimibe in wild type hamsters; plasma lipids; type: in vivo, golden Syrian hamster; conditions: WT hamsters, high-fat diet plus 2 mg/kg ezetimibe intragastric daily for two weeks
Procedure: The high-fat diet used in the study was a normal rodent diet containing 0.5% cholesterol and 10% lard. The dose of ezetimibe was 2 mg/kg body weight, administered by intragastric administration, and the control group was given tri-distilled water. Plasma was collected before high-fat diet feeding, after two weeks of high-fat diet feeding, before administration and after two weeks of administration, respectively. The hamsters were fasted for 12 hours at night, anesthetized by intraperitoneal injection of pentobarbital sodium, and about 1 ml of blood was collected from the posterior orbital vein, and heparin was used for anticoagulation. A plasma triglyceride assay kit and a total cholesterol assay kit (Biosino Bio-Technology and Science Inc.) were used to detect plasma triglyceride and total cholesterol levels. High-density lipoprotein cholesterol (HDL-C) was tested for cholesterol levels after removal of apoB-containing lipoproteins by polyethylene glycol precipitation. The lipid component of plasma lipoprotein was detected by using fast protein liquid chromatography (FPLC) instrument of Amersham Biocsciences, USA, and the plasma lipoprotein fraction was firstly separated by superose 6 HR10/30 column. […]

[2] = test system: LDL-R gene deficient Δ194 bp heterozygous hamsters; assay: High-fat diet feeding with intragastric ezetimibe in LDL-R+/- hamsters; plasma lipids, lipoprotein FPLC, body weight; type: in vivo, golden Syrian hamster
Procedure: The high-fat diet used in the study was a normal rodent diet containing 0.5% cholesterol and 10% lard. The dose of ezetimibe was 2 mg/kg body weight, administered by intragastric administration, and the control group was given tri-distilled water. Plasma was collected before high-fat diet feeding, after two weeks of high-fat diet feeding, before administration and after two weeks of administration, respectively. The hamsters were fasted for 12 hours at night, anesthetized by intraperitoneal injection of pentobarbital sodium, and about 1 ml of blood was collected from the posterior orbital vein, and heparin was used for anticoagulation. A plasma triglyceride assay kit and a total cholesterol assay kit (Biosino Bio-Technology and Science Inc.) were used to detect plasma triglyceride and total cholesterol levels. High-density lipoprotein cholesterol (HDL-C) was tested for cholesterol levels after removal of apoB-containing lipoproteins by polyethylene glycol precipitation. The lipid component of plasma lipoprotein was detected by using fast protein liquid chromatography (FPLC) instrument of Amersham Biocsciences, USA, and the plasma lipoprotein fraction was firstly separated by superose 6 HR10/30 column. 200 μl of plasma was loaded through a 0.22 μm syringe filter, and the separated components were automatically collected at a rate of 0.5 mL per minute, 500 μl per component, for a total of 35 components. The above cholesterol detection kit was applied to each component to detect the cholesterol content, and a plasma lipoprotein profile was prepared.

[3] = 2 mg/kg intragastric daily, two weeks, high-fat diet

O=C1[C@H](CC[C@H](O)c2ccc(F)cc2)[C@@H](c2ccc(O)cc2)N1c1ccc(F)cc1 [ezetimibe]
triglyceride level after administration ([1]; high-fat diet only 413 mg/dL): 157 mg/dL | plasma cholesterol level after administration ([1]; high-fat diet only 513 mg/dL): 111 mg/dL | effect on hyperlipidemia of LDL-R knockout hamsters ([2]; 2 mg/kg intragastric daily, high-fat diet): significantly reverses hyperlipidemia; also recorded: significantly reversed hypelipidemia | HDL cholesterol in plasma (FPLC) [2, 3]: not significantly changed; also recorded: little effect on HDL | VLDL and LDL cholesterol in plasma (FPLC) [2, 3]: decrease of VLDL-C and LDL-C; also recorded: mainly decreased VLDL and LDL in plasma | body weight, ezetimibe-administered group vs high-fat diet feeding group ([2]; 2 mg/kg intragastric daily, two weeks, high-fat diet, each group of hamsters (WT and LDL-R+/-)): no significant difference | plasma cholesterol change after administration (in words) ([2]; LDL-R heterozygous hamster on high-fat diet (0.5% cholesterol, 10% fat), ezetimibe 2 mg/kg): decreased to the level of the wild type hamster fed on common diet | triglyceride level after administration ([2]; LDL-R+/- hamsters, high-fat diet plus 2 mg/kg ezetimibe intragastric daily for two weeks, high-fat diet only 658 mg/dL): 225 mg/dL | plasma cholesterol level after administration ([2]; LDL-R+/- hamsters, high-fat diet plus 2 mg/kg ezetimibe intragastric daily for two weeks, high-fat diet only 1864 mg/dL): 157 mg/dL
